# Data from patent publication US20220402980A1, “CHROMOGRANIN A-DERIVED PEPTIDES AND USES THEREOF” (OSPEDALE SAN RAFFAELE S.R.L., priority 2019, published 2022).
# Like-named read-outs stand apart in the source and are kept apart here. Where no end group is shown, it is not given here.
# How the values were obtained:
# BxPC-3 cells = assay: Binding of peptide-IRDye conjugates to cultured BxPC-3 cells; format: cell-based, human; settings: BxPC-3 (αvβ6+ αvβ8-), 1 h at 37° C.
# Protocol: (§1) B) Binding of the indicated peptide-IRDye conjugates to the various cell lines. Various amounts of conjugates were added to cell monolayers (grown in 96-well microtiter plates) and incubated for 1 h at 37° C., 5% CO2 (see Experimental section). After washing, bound fluorescence was measured using an Odyssey CLx (LI-COR) scanner. A representative image of the scanned plate and binding quantification are reported. Mean ±SE of quadruplicate wells.
# (§2) Various amounts of unlabeled peptides were mixed 5a-IRDye (4 nM) and added to the cells. After 1 h, the plates were washed, and the bound fluorescence was quantified as described above (left panels).
# (§3) The binding of peptide-IRDye conjugates to BxPC-3, 5637, HUVECs, 4T1, K8484 and DT6606 cells was analyzed as follows. The cells were grown in 96-well clear-bottom black microtiterplates (Corning® cat. 3603, 2-3x10^4 cells/well, plated 48 h before the experiment). After washing twice with 0.9% sodium chloride solution, the cells were incubated with 25 mM Hepes buffer, pH 7.4, containing 150 mM sodium chloride, 1 mM magnesium chloride, 1 mM manganese chloride and 1% BSA (binding buffer) for 5 min. Peptide-IRDye conjugates (0.013-40 nM in binding buffer) were then added to the cells and left to incubate for 1 h at 37° C., 5% CO2. After three washings with binding buffer (5 min each, 200 al/well), the cells were fixed with PBS containing 2% paraformaldehyde and 3% sucrose for 15 min at room temperature. Binding of conjugates to cells was quantified by scanning the plate (filled with PBS, 100 al/well) with the Odyssey CLx (LI-COR) using the following settings: scan intensity, 8.5; scan focus offset 4; scan quality, highest; channel, 800; resolution, 169 pm. Then, the plates were incubated with 5 μg/ml of 4′,6-diamidino-2-phenylindole (DAPI) for 15 min, washed twice with PBS and read with a VICTOR3 plate reader (Perkin Elmer, Waltham, Mass., USA) to quantify the cell number in each well, using the following filters: excitation, 355±40 nm; emission, 460±25 nm (acquisition,1 s).
# 5637 cells [1] = assay: Binding of peptide-IRDye conjugates to cultured 5637 cells; format: cell-based, human; settings: 5637 (αvβ6+ αvβ8+), 1 h at 37° C.
# Protocol: as §1, §2, §3
# HUVEC = assay: Binding of peptide-IRDye conjugates to cultured HUVEC; format: cell-based, human; settings: HUVEC (lacking these integrins)
# Protocol: as §1
# The binding of peptide-IRDye conjugates to BxPC-3, 5637, HUVECs, 4T1, K8484 and DT6606 cells was analyzed as follows. The cells were grown in 96-well clear-bottom black microtiterplates (Corning® cat. 3603, 2-3x10^4 cells/well, plated 48 h before the experiment). […] Binding of conjugates to cells was quantified by scanning the plate (filled with PBS, 100 al/well) with the Odyssey CLx (LI-COR) using the following settings: scan intensity, 8.5; scan focus offset 4; scan quality, highest; channel, 800; resolution, 169 pm. Then, the plates were incubated with 5 μg/ml of 4′,6-diamidino-2-phenylindole (DAPI) for 15 min, washed twice with PBS and read with a VICTOR3 plate reader (Perkin Elmer, Waltham, Mass., USA) to quantify the cell number in each well, using the following filters: excitation, 355±40 nm; emission, 460±25 nm (acquisition,1 s).
# [2] = system: subcutaneous BxPC-3 tumors; settings: mouse, in vivo
# in vivo = settings: female, NSG, mouse, iv, 1.28 nmol
# 5637 cells [3] = assay: Binding assay of 5-Qdot to human 5637 cells (FACS, fluorescence microscopy); format: cell-based; settings: flow cytometry and fluorescence microscopy
# Protocol: FIG. 3. Binding of CgA-derived peptides to human bladder cancer 5637 cells. a) Effect of 1, 4, 5 and 6 on the binding of anti-αvβ6 mAb 10D5 to 5637 cells. Antibody binding quantification as determined by flow cytometry analysis (FACS) (see also FIG. 11A). Compounds were mixed with mAb 10D5 and added to cells; mAb binding was detected by FACS and inhibitory concentration (IC50, mean±SEM) was determined. Each point is in duplicate. b) Binding of 5-Qdot or *Qdot (control) to 5637 cells as measured by FACS. Representative FACS (left and middle) and quantification of Qdot binding (right) (circles: mean±SD of duplicates). c) Representative fluorescence bioimaging of 5637 cells incubated with 5-Qdot, *Qdot or diluent. […]
# Binding assays of 5-Qdot and *Qdot to 5637 cells were carried out as follows: 5637 cells were grown in chamber slides (6×10^4 cells/well). […] The cells were washed again with binding buffer, fixed with paraformaldehyde for 20 min, counterstained with DAPI (0.05 μg/ml, Invitrogen), and analyzed using a fluorescence microscopy (Carl Zeiss, Axioscop 40FL; excitation, filter, BP 560/40 nm; beam splitter filter, FT 585 nm; emission filter, 630/75 nm). […] After washing with 25 mM Hepes buffer, pH 7.4, containing 150 mM NaCl, 1 mM MgCl2, 1 mM MgCl2, the cells were fixed with formaldehyde and analyzed using the CytoFLEX S (Beckman Coulter).
# αvβ6 [4] = target: T1, αvβ6 (Homo sapiens, UniProt P06756+P18564); assay: Direct binding of peptide-IRDye conjugates to αvβ6-coated microtiter plates; settings: purified integrin
# T1 construct: recombinant human αvβ6 extracellular domain (R&D Systems); purchased R&D Systems (Minneapolis, Minn.)
# T1 sequence (P06756 31-992 limits assumed): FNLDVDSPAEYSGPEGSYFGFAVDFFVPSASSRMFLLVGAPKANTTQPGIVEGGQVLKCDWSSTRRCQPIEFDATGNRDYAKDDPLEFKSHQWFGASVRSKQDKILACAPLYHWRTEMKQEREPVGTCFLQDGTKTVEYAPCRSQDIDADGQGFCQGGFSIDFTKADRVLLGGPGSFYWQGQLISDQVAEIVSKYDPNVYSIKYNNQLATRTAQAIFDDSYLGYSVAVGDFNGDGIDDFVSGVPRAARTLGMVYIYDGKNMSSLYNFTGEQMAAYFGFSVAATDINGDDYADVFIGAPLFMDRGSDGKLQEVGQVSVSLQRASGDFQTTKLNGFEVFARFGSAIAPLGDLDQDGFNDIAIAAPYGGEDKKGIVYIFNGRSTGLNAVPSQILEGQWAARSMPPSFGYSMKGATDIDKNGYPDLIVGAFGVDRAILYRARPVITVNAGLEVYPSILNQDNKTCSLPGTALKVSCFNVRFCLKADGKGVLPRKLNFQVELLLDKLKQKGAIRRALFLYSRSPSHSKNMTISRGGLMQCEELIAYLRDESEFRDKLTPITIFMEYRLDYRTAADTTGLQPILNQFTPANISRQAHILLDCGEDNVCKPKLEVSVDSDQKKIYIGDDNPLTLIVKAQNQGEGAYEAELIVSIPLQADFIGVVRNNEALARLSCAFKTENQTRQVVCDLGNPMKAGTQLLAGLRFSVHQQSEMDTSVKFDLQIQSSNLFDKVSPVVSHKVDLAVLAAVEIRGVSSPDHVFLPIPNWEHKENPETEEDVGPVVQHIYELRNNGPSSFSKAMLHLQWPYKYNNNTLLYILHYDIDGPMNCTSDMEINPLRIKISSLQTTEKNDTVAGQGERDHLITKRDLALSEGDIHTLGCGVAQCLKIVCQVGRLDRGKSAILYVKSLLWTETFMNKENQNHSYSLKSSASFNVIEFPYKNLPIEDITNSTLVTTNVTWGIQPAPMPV
# T1 sequence (P18564 22-709 limits assumed): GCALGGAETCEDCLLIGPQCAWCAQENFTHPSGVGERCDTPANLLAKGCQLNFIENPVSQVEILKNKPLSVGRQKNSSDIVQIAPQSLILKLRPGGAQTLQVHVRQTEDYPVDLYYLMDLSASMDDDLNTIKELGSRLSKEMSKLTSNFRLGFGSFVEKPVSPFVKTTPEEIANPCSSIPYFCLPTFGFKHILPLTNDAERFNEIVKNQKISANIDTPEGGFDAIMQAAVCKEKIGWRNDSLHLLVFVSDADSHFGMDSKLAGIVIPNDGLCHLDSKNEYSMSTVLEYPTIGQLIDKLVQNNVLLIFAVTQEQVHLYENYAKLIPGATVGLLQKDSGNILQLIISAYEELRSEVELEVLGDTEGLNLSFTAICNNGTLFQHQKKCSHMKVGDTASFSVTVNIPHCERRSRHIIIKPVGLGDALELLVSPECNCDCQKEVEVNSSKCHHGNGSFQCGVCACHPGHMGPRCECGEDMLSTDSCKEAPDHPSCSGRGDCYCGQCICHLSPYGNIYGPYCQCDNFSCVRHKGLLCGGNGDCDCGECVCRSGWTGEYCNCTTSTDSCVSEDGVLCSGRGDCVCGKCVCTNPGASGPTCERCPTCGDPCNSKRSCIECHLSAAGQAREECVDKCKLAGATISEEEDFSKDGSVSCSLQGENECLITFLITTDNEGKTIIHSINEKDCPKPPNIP
# Protocol: (§4) Binding of 5a-IRDye and 2a-IRDye to microtiterplates coated with or without αvβ6 or αvβ8 as indicated in each panel. Various amounts of conjugates were added to microtiterplates and incubated for 1 h at room temperature (see Experimental section). After washing, bound fluorescence was measured using an Odyssey CLx (LI-COR) scanner. Representative images of the scanned plate and quantification of the binding are reported. Mean ±SE of triplicates. Effective concentration 50 (EC50, mean±SD) of the indicated number of independent experiments is shown.
# (§5) Binding of 5a-IRDye, 2a-IRDye and Cys-IRDye to αvβ6 and αvβ8 was determined by direct binding assays as follows: 96-well clear-bottom black microtiterplates (Corning® cat. 3601) were coated with 4 μg/ml αvβ6 or αvβ8, in Dulbecco's phosphate-buffered saline with Ca2+ and Mg2+(DPBS, 50 ul/well) and left to incubate over-night at 4° C. […] The bound fluorescence was then quantified by scanning the empty plates with an Odyssey CLx near-infrared fluorescence imaging system (LI-COR) using the following settings: scan intensity, 8.5; scan focus offset, 3; scan quality, highest; channel, 800; resolution, 169 pm.
# αvβ8 [5] = target: T2, αvβ8 (Homo sapiens, UniProt P06756+P26012); assay: Direct binding of peptide-IRDye conjugates to αvβ8-coated microtiter plates; settings: purified integrin
# T2 sequence (P06756 31-992 limits assumed): as the sequence (P06756 31-992 limits assumed) above
# T2 sequence (P26012 43-684 limits assumed): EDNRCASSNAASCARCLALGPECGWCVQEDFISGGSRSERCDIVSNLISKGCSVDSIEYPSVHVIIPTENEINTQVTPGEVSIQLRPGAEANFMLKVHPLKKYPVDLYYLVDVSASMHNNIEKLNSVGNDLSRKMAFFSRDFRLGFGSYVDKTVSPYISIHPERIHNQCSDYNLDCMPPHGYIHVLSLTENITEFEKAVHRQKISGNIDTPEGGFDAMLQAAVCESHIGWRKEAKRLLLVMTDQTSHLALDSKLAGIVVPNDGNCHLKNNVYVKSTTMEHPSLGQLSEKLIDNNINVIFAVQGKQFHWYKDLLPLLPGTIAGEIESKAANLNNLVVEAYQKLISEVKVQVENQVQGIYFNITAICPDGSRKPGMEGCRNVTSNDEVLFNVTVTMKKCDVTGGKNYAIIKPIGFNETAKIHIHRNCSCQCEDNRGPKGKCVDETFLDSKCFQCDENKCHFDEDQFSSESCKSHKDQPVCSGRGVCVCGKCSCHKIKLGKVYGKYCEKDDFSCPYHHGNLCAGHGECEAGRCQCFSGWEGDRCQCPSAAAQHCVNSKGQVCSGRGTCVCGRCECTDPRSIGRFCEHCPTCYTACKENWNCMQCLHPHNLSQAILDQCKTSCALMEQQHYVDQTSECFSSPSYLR
# Protocol: as §4, §5
# αvβ6 [6] = target: T1, αvβ6; assay: Competitive integrin binding assay (isoDGR/STV-HRP probe), αvβ6-coated plates; settings: non-stapled control peptide with RGE
# Protocol: (§6) Peptide binding was measured by a competitive binding assay using as integrin probe a complex made by a N-terminal acetylated isoDGR peptide biotinylated at the E-amino group of the lysine, acetyl-Ciso[…]-bio (SEQ ID No. 29), and a streptavidin-peroxidase conjugate (called isoDGR/STV-HRP)[43].
# (§7) Each mixture was then added to integrin-coated wells and left to incubate for 2 h at room temperature. After washing with 25 mM Tris-HCl, pH 7.4, containing 150 mM sodium chloride, 1 mM magnesium chloride, 1 mM manganese chloride, each well was filled with a chromogenic solution (o-phenylenediamine dihydrochloride) and left to incubate for 30 min at room temperature. The chromogenic reaction was stopped by adding 1 N sulfuric acid. The absorbance at 490 nm was then measured using a microtiterplate reader. Ki values were calculated by non-linear regression analysis of competitive binding data using the “One site - Fit Ki” equation of the GraphPad Prism Software using the Kd values of the probe indicated above.
# αvβ8 [7] = target: T2, αvβ8; assay: Competitive integrin binding assay (isoDGR/STV-HRP probe), αvβ8-coated plates; settings: non-stapled control peptide with RGE
# Protocol: as §6, §7
# αvβ6 [8] = target: T1, αvβ6; settings: cited from earlier work
# αvβ8 [9] = target: T2, αvβ8; settings: Table 3a; Ki of 2 as determined in [21]; cited from earlier work
# α5β1 = target: T3, α5β1 (Homo sapiens, UniProt P05556+P08648); settings: Table 3a; Ki of 2 as determined in [21]; cited from earlier work
# T3 construct: purchased Immunological Sciences (Rome, Italy)
# T3 sequence (P08648 42-894 limits assumed): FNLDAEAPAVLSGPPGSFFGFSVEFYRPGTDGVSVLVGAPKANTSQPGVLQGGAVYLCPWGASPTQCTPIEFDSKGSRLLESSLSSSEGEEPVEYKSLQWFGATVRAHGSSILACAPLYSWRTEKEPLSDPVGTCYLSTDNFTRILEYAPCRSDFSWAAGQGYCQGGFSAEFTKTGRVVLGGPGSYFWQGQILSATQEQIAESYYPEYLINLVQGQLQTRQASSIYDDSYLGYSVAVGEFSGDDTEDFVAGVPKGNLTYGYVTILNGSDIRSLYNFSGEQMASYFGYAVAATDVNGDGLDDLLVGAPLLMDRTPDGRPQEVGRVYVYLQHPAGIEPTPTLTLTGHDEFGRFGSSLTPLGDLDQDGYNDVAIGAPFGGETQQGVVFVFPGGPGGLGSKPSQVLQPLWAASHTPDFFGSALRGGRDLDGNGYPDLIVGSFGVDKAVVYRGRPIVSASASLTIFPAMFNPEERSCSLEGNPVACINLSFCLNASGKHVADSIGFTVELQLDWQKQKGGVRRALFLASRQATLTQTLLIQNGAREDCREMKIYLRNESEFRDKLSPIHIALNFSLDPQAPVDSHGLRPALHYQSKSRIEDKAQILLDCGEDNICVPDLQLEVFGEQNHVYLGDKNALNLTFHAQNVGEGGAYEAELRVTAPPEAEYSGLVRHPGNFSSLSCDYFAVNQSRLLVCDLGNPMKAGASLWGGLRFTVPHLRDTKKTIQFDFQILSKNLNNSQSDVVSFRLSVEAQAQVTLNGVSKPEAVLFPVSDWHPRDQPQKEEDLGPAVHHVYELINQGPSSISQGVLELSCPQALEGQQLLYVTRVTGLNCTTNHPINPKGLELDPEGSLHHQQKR
# T3 sequence (P08648 895-1049 partner limits assumed): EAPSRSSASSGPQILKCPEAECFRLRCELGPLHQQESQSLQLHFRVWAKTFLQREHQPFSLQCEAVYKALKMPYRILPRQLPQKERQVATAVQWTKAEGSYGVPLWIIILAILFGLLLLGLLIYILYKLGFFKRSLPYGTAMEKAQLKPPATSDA
# T3 sequence (P05556 21-798): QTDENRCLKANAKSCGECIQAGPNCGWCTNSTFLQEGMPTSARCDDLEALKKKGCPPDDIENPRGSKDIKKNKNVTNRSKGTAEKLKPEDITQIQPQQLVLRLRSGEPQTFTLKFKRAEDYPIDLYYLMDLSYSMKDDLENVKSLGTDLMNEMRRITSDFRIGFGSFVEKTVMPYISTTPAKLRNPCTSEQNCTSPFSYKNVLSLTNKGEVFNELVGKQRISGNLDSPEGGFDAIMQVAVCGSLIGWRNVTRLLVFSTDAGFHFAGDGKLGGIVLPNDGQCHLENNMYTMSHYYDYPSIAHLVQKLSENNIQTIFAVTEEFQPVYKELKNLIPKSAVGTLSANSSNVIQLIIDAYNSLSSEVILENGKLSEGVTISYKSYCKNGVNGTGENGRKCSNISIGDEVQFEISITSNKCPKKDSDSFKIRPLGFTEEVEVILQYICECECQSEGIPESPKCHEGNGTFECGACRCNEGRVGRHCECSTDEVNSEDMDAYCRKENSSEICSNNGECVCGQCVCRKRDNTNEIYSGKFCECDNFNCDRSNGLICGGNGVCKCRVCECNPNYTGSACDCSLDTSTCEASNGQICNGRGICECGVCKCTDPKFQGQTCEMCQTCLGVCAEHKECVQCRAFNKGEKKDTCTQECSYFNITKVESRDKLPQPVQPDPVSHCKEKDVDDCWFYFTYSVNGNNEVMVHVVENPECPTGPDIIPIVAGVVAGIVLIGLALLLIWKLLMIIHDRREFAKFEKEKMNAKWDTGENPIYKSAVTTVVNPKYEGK
# αvβ5 = target: T4, αvβ5 (Homo sapiens, UniProt P06756+P18084); settings: Table 3a; Ki of 2 as determined in [21]; cited from earlier work
# T4 construct: purchased Immunological Sciences (Rome, Italy)
# αvβ3 = target: T5, αvβ3 (Homo sapiens, UniProt P05106+P06756); settings: Table 3a; Ki of 2 as determined in [21]; cited from earlier work
# T5 construct: purchased Immunological Sciences (Rome, Italy)
compound,measurement,setting,value
CC[C@H](C)[C@H](NC(=O)[C@H](CCCNC(=N)N)NC(=O)[C@H](CC(C)C)NC(=O)[C@H](CC(=O)O)NC(=O)CNC(=O)[C@H](CCCNC(=N)N)NC(=O)[C@H](CC(C)C)NC(=O)[C@@H](NC(=O)[C@H](CCC(=O)O)NC(=O)[C@H](Cc1ccccc1)NC(=O)[C@@H](N)CSC1CC(=O)N(CCNC(=O)CCCCCN2C(=CC=C3CCCC(C=CC4=[N+](CCCCS(=O)(=O)[O-])c5ccc(S(=O)(=O)O)cc5C4(C)C)=C3Oc3ccc(S(=O)(=O)O)cc3)C(C)(C)c3cc(S(=O)(=O)O)ccc32)C1=O)[C@@H](C)O)C(=O)N[C@@H](CC(C)C)C(=O)N[C@@H](CO)C(=O)N[C@H](C(=O)N[C@@H](CC(C)C)C(=O)N[C@@H](CCCNC(=N)N)C(=O)N[C@H]1Cc2cn(nn2)CCCC[C@@H](C(=O)N[C@@H](CCCCN)C(=O)N[C@@H](CCC(=O)O)C(=O)N[C@@H](CC(C)C)C(=O)N[C@@H](CCC(N)=O)C(=O)N[C@@H](CC(=O)O)C(N)=O)NC(=O)[C@H](CC(C)C)NC(=O)[C@H](CC(N)=O)NC(=O)[C@H](CCC(N)=O)NC1=O)[C@@H](C)CC (stereo partly shown) [5a-IRDye],binding of conjugate to cells,BxPC-3 cells,"could bind, in a dose dependent manner"
same,binding of conjugate to cells,5637 cells [1],"could bind, in a dose dependent manner"
same,binding of conjugate to cells,HUVEC,little or not
same,tumor signal twenty-four hours after injection,[2],significant signal was still visible
same,time of maximal tumor uptake after injection,[2]; iv,1 h
same,tissue to tissue ratio at 24 h,in vivo,12
*Qdot: control nanoconjugate without the targeting ligand; Qdot coupled to control peptide cyclic head-to-tail c(CGARAG) (cyclo(CGARAG); also: coupled to Qdot (control nanoconjugate)) [reference compound],binding of Qdot conjugate to cells,5637 cells [3],not
2a-IRDye: control peptide 2a coupled via Cys to maleimide-IRDye 800CW (C(maleimide‑IRDye 800CW)FETLRGEERILSILRHQNLLKELQD) [reference compound],binding to αvβ6-coated plates,αvβ6 [4],not
same,binding to αvβ8-coated plates,αvβ8 [5],not
same,binding of conjugate to cells,BxPC-3 cells,not
same,binding of conjugate to cells,5637 cells [1],not
FETLRGEERILSILRHQNLLKELQD [peptide 2],binding to αvβ6,αvβ6 [6],unable to bind these integrins
same,binding to αvβ8,αvβ8 [7],unable to bind these integrins
same,Ki,"αvβ6 [8]; Table 3a, Ki of 2 as determined in [21], read-out: Ki αvβ6",> 50 µM
same,Ki,"αvβ6 [8]; peptide with RGE instead of RGD, read-out: Ki",> 50 µM
same,Ki,αvβ8 [9],> 50 µM
same,Ki,α5β1,> 50 µM
same,Ki,αvβ5,> 50 µM
same,Ki,αvβ3,> 50 µM
